Results published in patent publication US9475812B2, “Pyridonaphthyridine type dual PI3K and mTOR inhibitor and its preparation and use” (Xuanzhu Pharma Co., Ltd., priority 2011, dated 2016).
Where two headings read alike, the source gives them in different places.

Key:
[1] = system: A549 cells; assay: In vitro cellular inhibitory activity, XTT cell viability, A549; format: cell-based; settings: Homo sapiens, 72 hours
Experimental: (§1) 1. Formulating the agents and the compounds: Formulating the PBS, the XTT working liquor, the paclitaxel stock solution and gradient dilute solutions thereof, and the stock solution of test compound and gradient dilute solutions of test compounds.
(§2) 2. Culturing cells: Thawing cells, Passing cells, Freezing and preserving cells.
(§3) Preparing the cell suspension;
(§4) The cell suspension was added to a 96-well plate, 100 μL per well;
(§5) The plate was placed in the incubator and incubated at 37° C. under 5% CO2 overnight.
(§6) Drugs were added to the cell culture plate. The plate was placed in the CO2 incubator and incubated for 72 hours.
(§7) 5. Testing the cell viability with the XTT method
(§8) The XTT working solution was added to the plate. The plate was placed in the CO2 incubator for 2 hours. Then the plate was placed in a microplate reader to read the absorbance at 450 nm.
(§9) 1) % inhibition=(Absorbance (Vehicle)−Absorbance(Compound))/(Absorbance(Vehicle)−Absorbance(positive control)×100%;
(§10) 2) Data were input into GraphPad Prism 5.0 to plot a curve and obtain IC50.

[2] = target: mTOR (Homo sapiens, UniProt P42345); assay: mTOR enzymology assay (in vitro enzyme inhibition, ULight-4E-BP1 peptide, Lance signal); format: biochemical; settings: mTOR 2.5 nM, ULight-4E-BP1 peptide 50 nM, ATP 10.8 uM, 60 mins
Experimental: mTOR Enzymology Assay Procedures
1. The agent's final concentrations and the compound solution preparation
1.1 mTOR (2.5 nM) kinase solution, substrate ULight-4E-BP1 peptide 50 nM, ATP 10.8 uM;
(§11) 1.2 4 folds kinase solution, 2 folds substrate and ATP solution;
(§12) 1.3 test compound 1 mM stock solution (final concentration 100 folds of DMSO solution).
(§13) 2.1 test compound 1 mM, diluted with DMSO 4 folds gradient, and then diluted with kinase buffer 25 folds;
(§14) 2.2 To each well in a 384-well plate was added 2.5 μL series diluted compounds;
2.3 To each well was added 2.5 μL 4 fold kinase solution;
(§15) 2.4 To each well was added 2.5 μL substrate/ATP solution;
(§16) 2.5 incubated for 60 mins;
2.6 Envision data reading Lance signal (665 nM).
The inhibition ratio %=(Lance signal−min)/(max−min)×100
wherein “max” is the DMSO control containing the enzyme but not containing the compound; “min” is the control without the kinase.
Input the data into GraphPad Prism5.0 to plot a curve and obtain IC50.

[3] = Pharmacokinetic assay in rat in vivo; settings: Sprague-Dawley (SD), plasma, male SD rats; for half-life: read-out: T1/2 (half-life) (converted); for bioavailability: PO(4 mg/kg) vs IV, read-out: F(%) absolute bioavailability
Experimental: Male SD rats, each test substance, each administration, three rats were used, having a body weight of 200-250 g.
the present compounds: Compound 16, dissolved with 5% NMP+60% PEG400+35% sterile water for injection, other compounds, dissolved with 5% NMP+40% PEG400+55% sterile water for injection.
Blood collection: each of about 100 μL whole blood were collected at 0 h before administration (pre-administration), and at 0.083 h, 0.25 h, 0.5 h, 1 h, 2 h, 4 h, 6 h, 8 h and 24 h after administration. The collected blood samples were centrifuged at 8000 rpm in a high-speed centrifuge for 6 mins to separate the blood plasm. The separated plasm was freezing-preserved at −80° C. in a refrigerator.
Plasm sample analysis: The plasm sample was treated by a liquid-liquid extraction. 20 μL of the plasm was taken, subjected to a vortex at 1500 rpm for 10 mins, and then centrifuged at 12000 rpm for 5 mins. 400 μL of the supernatant was taken and blowed to dryness in the nitrogen gas. The resulting substance is re-dissolved in 200 μL methanol:water (1:1, V/V), and the solution was analyzed with LC-MS/MS.

[4] = target: PI3Kα (Homo sapiens, UniProt P42336); assay: PI3Kα enzymology assay (in vitro enzyme inhibition); format: biochemical; settings: PI3Kα 1.65 nM, PIP2 50 μM, ATP 25 μM, 60 mins
Experimental: PI3Kα Enzymology Assay Procedures
1. The agent's final concentrations and the compound formulation
1.1 PI3Kα (1.65 nM) kinase solution, substrate PIP2 50 μM, ATP 25 μM;
as §11, §12, §13, §14
2.3 To each well was added 2.5 μL 4 folds kinase solution;
as §15, §16
2.6 Envision data reading: Lance signal ([…]).
The inhibition ratio %=(sample RLU−min)/(max−min)×100
wherein “max” is the control without the kinase; “min” is the DMSO control containing the enzyme but not containing the compound.
Data were input into GraphPad Prism 5.0 to plot a curve and obtain IC50.

[5] = system: U87MG cells; assay: In vitro cellular inhibitory activity, XTT cell viability, U87MG; format: cell-based; settings: Homo sapiens, U-87 MG, 72 hours
Experimental: as §1, §2, §3, §4, §5, §6, §7, §8, §9, §10

[6] = IV(2 mg/kg), dosage in Table 3 (Compound 16: 0.45 mg/kg)

PI3Kα, sequence (P42336 whole entry): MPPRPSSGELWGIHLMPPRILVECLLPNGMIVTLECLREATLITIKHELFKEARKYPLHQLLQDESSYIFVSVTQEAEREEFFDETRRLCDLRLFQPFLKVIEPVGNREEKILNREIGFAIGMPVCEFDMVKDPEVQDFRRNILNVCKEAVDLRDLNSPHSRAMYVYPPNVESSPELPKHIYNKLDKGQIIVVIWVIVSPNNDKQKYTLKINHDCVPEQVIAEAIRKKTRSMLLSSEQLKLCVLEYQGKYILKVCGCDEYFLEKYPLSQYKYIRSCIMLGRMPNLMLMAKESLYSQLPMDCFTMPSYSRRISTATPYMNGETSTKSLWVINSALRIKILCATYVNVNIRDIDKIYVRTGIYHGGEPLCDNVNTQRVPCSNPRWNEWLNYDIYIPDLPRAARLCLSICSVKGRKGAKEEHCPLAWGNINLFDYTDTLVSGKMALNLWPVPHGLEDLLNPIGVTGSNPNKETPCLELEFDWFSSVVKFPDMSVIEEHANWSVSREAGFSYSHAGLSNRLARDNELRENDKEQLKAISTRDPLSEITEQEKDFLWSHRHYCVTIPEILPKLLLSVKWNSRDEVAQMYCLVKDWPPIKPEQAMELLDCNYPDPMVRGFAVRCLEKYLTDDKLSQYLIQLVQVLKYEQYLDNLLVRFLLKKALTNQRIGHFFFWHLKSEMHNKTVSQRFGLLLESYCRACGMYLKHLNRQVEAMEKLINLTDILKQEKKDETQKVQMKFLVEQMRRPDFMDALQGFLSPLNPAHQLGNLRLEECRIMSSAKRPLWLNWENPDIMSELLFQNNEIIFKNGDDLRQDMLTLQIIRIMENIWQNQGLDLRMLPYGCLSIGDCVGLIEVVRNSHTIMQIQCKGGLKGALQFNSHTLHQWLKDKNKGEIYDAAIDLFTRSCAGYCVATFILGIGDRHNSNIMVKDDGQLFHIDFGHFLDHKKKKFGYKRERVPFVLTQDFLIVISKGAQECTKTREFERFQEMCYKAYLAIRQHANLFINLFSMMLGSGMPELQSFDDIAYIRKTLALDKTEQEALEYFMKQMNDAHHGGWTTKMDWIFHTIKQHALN
PI3Kα, sequence (P27986 whole entry partner): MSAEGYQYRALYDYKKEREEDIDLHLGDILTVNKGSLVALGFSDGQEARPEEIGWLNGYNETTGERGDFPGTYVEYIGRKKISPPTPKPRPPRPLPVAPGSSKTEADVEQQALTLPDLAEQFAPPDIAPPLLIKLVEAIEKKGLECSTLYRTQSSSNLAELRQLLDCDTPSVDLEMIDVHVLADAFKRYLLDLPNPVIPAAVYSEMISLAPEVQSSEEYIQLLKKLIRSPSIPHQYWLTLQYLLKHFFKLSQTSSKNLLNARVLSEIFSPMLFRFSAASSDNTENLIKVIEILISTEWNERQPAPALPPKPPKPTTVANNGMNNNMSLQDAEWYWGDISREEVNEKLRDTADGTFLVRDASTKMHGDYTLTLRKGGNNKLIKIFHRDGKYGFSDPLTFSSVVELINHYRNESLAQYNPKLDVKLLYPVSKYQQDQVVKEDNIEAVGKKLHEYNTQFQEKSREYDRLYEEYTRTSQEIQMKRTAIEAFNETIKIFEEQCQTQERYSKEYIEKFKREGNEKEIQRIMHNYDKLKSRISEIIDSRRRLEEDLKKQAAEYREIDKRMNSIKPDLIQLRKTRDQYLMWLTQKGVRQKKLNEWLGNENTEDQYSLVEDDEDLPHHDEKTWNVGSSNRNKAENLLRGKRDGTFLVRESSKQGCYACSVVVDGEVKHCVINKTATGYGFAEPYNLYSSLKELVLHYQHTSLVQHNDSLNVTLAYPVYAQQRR

| Compound | IC50 [1] | IC50 [2] | AUC(0-t) [3, 6] | half-life [3, 6] | bioavailability [3] | AUC(0-t) ([3]; PO(4 mg/kg), intragastric) | half-life ([3]; PO(4 mg/kg), intragastric) | IC50 [4] | IC50 [5] |
| --- | --- | --- | --- | --- | --- | --- | --- | --- | --- |
| Nc1ccc(-c2ccc3ncc4ccc(=O)n(-c5cccc(C(F)(F)F)c5)c4c3n2)cn1 [Compound 1, 2-(6-aminopyridin-3-yl)-10-(3-(trifluoromethyl)phenyl)pyrido[3,2-c][1,5]naphthyridin-9(10H)-one] | 11.9 nM | 0.87 nM | 1310 ng·h/mL | 1.79 h | 43.7% | 1030 ng·h/mL | 2.78 h | 3.2 nM | 8.9 nM |
| CC(C)(C#N)c1ccc(-n2c(=O)ccc3cnc4ccc(-c5ccc(N)nc5)nc4c32)cc1 [Compound 7, 2-(4-(2-(6-aminopyridin-3-yl)-9-oxopyrido[3,2-c][1,5]naphthyridin-10(9H)-yl)phenyl)-2-methylpropanenitrile] | – | – | – | – | – | – | – | – | 29.3 nM |
| Nc1ncc(-c2ccc3ncc4ccc(=O)n(-c5cccc(C(F)(F)F)c5)c4c3n2)cn1 [Compound 13, 2-(2-aminopyrimidin-5-yl)-10-(3-(trifluoromethyl)phenyl)pyrido[3,2-c][1,5]naphthyridin-9(10H)-one] | – | 0.47 nM | 711 ng·h/mL | 0.62 h | 49% | 707 ng·h/mL | 1.44 h | 2.4 nM | 26.4 nM |
| COc1ncc(-c2ccc3ncc4ccc(=O)n(-c5cccc(C(F)(F)F)c5)c4c3n2)cn1 [Compound 14, 2-(2-methoxypyrimidin-5-yl)-10-(3-(trifluoromethyl)phenyl)pyrido[3,2-c][1,5]naphthyridin-9(10H)-one] | – | 4.4 nM | – | – | 42.3% | 445 ng·h/mL | 3.49 h | 8.8 nM | – |
| CC(=O)Nc1ccc(-c2ccc3ncc4ccc(=O)n(-c5cccc(C(F)(F)F)c5)c4c3n2)cn1 [Compound 15, N-(5-(9-oxo-10-(3-(trifluoromethyl)phenyl)-9,10-dihydropyrido[3,2-c][1,5]naphthyridin-2-yl)pyridin-2-yl)acetamide] | 20.2 nM | 3 nM | 441 ng·h/mL | 0.71 h | 65% | 550 ng·h/mL | 2.36 h | 6.1 nM | 12.7 nM |
| N#Cc1ccc(-c2ccc3ncc4ccc(=O)n(-c5cccc(C(F)(F)F)c5)c4c3n2)cn1 [Compound 16, 5-(9-oxo-10-(3-(trifluoromethyl)phenyl)-9,10-dihydropyrido[3,2-c][1,5]naphthyridin-2-yl)-2-cyanopyridine] | – | 8.7 nM | 195 ng·h/mL | 1.52 h | 23% | 410 ng·h/mL | 1.67 h | 58 nM | – |
| O=c1ccc2cnc3ccc(-c4c[nH]c5ncccc45)nc3c2n1-c1cccc(C(F)(F)F)c1 [Compound 17, 2-(1H-pyrrolo[2,3-b]pyridin-3-yl)-10-(3-(trifluoromethyl)phenyl)pyrido[3,2-c][1,5]naphthyridin-9(10H)-one] | – | 5.3 nM | 723 ng·h/mL | 0.61 h | 20.8% | 212 ng·h/mL | 5.68 h | 45 nM | – |
| O=c1ccc2cnc3ccc(-c4ccc(CO)nc4)nc3c2n1-c1cccc(C(F)(F)F)c1 [Compound 18, 2-(6-(hydroxymethyl)pyridin-3-yl)-10-(3-(trifluoromethyl)phenyl)pyrido[3,2-c][1,5]naphthyridin-9(10H)-one] | – | 2.6 nM | – | – | – | – | – | 3.6 nM | – |

The next lines start with the values.

| IC50 [1] | IC50 [2] | AUC(0-t) [3, 6] | half-life [3, 6] | bioavailability [3] | AUC(0-t) ([3]; PO(4 mg/kg), intragastric) | half-life ([3]; PO(4 mg/kg), intragastric) | IC50 [4] | IC50 [5] | Compound |
| --- | --- | --- | --- | --- | --- | --- | --- | --- | --- |
| – | 2.3 nM | – | – | – | – | – | 158 nM | – | CN1CCN(c2ccc(-c3ccc4ncc5ccc(=O)n(-c6cccc(C(F)(F)F)c6)c5c4n3)cn2)CC1 [Compound 19, 2-(6-(4-methylpiperazin-1-yl)pyridin-3-yl)-10-(3-(trifluoromethyl)phenyl)pyrido[3,2-c][1,5]naphthyridin-9(10H)-one] |
| – | 6 nM | – | – | – | – | – | 104 nM | – | O=c1ccc2cnc3ccc(-c4ccc(-n5cccn5)nc4)nc3c2n1-c1cccc(C(F)(F)F)c1 [Compound 20, 2-(6-(1H-pyrazol-1-yl)pyridin-3-yl)-10-(3-(trifluoromethyl)phenyl)pyrido[3,2-c][1,5]naphthyridin-9(10H)-one] |
| – | 5 nM | – | – | – | – | – | 17 nM | – | CSc1ccc(-c2ccc3ncc4ccc(=O)n(-c5cccc(C(F)(F)F)c5)c4c3n2)cn1 [Compound 38, 2-(6-(methylthio)pyridin-3-yl)-10-(3-(trifluoromethyl)phenyl)pyrido[3,2-c][1,5]naphthyridin-9(10H)-one] |
| 6.8 nM | 0.89 nM | – | – | – | – | – | 2.5 nM | 8.4 nM | O=c1ccc2cnc3ccc(-c4cnc5[nH]ccc5c4)nc3c2n1-c1cccc(C(F)(F)F)c1 [Compound 39, 2-(1H-pyrrolo[2,3-b]pyridin-5-yl)-10-(3-(trifluoromethyl)phenyl)pyrido[3,2-c][1,5]naphthyridin-9(10H)-one] |
| 14.7 nM | – | 259 ng·h/mL | – | 22.6% | 104 ng·h/mL | – | – | 12.4 nM | Nc1ccc(-c2ccc3ncc4ccc(=O)n(-c5cccc(C(F)(F)F)c5)c4c3c2)cn1 [Torin-2, 9-(6-Aminopyridin-3-yl)-1-(3-(trifluoromethyl)phenyl)benzo[h][1,6]naphthyridin-2(1H)-one, reference compound] |
